Experimental data as given in patent US10233143B2, “Pseudoceramide compound, and external use skin preparation composition containing same” (AE KYUNG INDUSTRIAL CO., LTD, priority 2014, dated 2019).

Columns and labels:
[1] = Strengthening internal hair tissues: hair breakage after 10,000 brushings (Experimental Example 3); details: for Numbers of broken hairs: hair essence with 0.2 wt % of the substance applied once, among 4,000 strands after 10,000 brushings, untreated 89; for Hair breakage improvement rate: hair essence with 0.2 wt % of the substance, versus untreated hairs
Protocol: A formulation of hair essence including novel compounds comprising pseudoceramide prepared in Example 7, a formulation of hair essence including conventional pseudoceramide prepared in Comparative Example 5, a formulation of hair essence without pseudoceramide prepared in Comparative Example 6 were evaluated in view of internal hair tissue strengthening effect. The internal hair tissue strengthening effect was tested in the following manner.
After hairs damaged by permanent weaving, bleaching, shampooing, thermal stimulation, brushing and so on were prepared, ceramide administered essence was applied once to the damaged hairs. In order to evaluate strengths of internal tissues of the hair, after the hair was brushed 10,000 times, a hair breakage improvement rate was calculated using the number of broken strands of untreated hairs and the number of broken strands of treated hairs. The number of hairs used in the experiment was 4,000 in total for each sample.
The hair breakage improvement rate was calculated by the following equation: Breakage improvement rate (%)=(Number of broken strands of untreated hairs−Number of broken strands of treated hairs)/Number of broken strands of untreated hairs

[2] = test system: Propionibacterium acnes (ATCC 6919); assay: Minimum inhibitory concentration against Propionibacterium acnes (agar medium); type: cell-based; details: media treated with the sample
Protocol: To investigate anti-microvial activity of the pseudoceramide compound represented by Formula 3 according to the present invention against propionibacterium acnes, the minimum inhibitory concentration (MIC) of the pseudoceramide sample was measured in the following manner. The sample to be tested was added to reinforced clostridial agar medium (commercially available from Difco Co.) in an amount of 0.06 to 1.0%, followed by solidification of the medium. The suspension of pre-incubated Propionibacterium acnes ATCC 6919 was streaked on the surface of the medium and the medium was incubated for 3 days at 37° C. under anaerobic condition.

[3] = test system: HaCaT human keratinocyte cells; assay: Cytotoxicity assay (MTT); type: cell-based; details: one day incubation, absorbance 540 nm
Protocol: Extents of citotoxicity were measured using HaCaT human keratinocyte cells. The HaCaT human keratinocyte cells were maintained in Dulbecco's modified Eagle's medium (DMEM) supplemented with 10% fetal bovine serum (FBS)] and then seeded onto 96-well plates with a concentration of 6×10^3 cells to be cultured at 37° C. in a 5% CO2 atmosphere for one day. Then, the DMEM was replaced with a new one and samples were treated by a serial dilution method with various concentrations ranging from 2.5 mM and then incubated for one day. After one day, 10 μl MTT reagents were treated with a 5 mg/mL concentration in media and the HaCaT cells were then incubated at 37° C. in a 5% CO2 atmosphere for 4 hours. The media were removed and 150 μl DMSO reagent was added to each well to dissolve violet crystals. Absorbance at 540 nm was measured.
A reaction solution without a sample was used as a negative control group. A cell growth rate for each sample solution was calculated by the following equation (1) and the results are shown in FIG. 7: Cell growth rate (%)=A/B×100 (1)
B: Absorbance of negative control group

SMILES	Numbers of broken hairs [1]	Hair breakage improvement rate [1] [%]	growth of strain in treated media (FIG. 8) [2]	half maximum inhibitory concentration (IC50), cell growth rate [3] [ppm]
CCCCCCCCCCCCCCCCCC(=O)N[C@@H](CO)[C@H](O)[C@H](O)CCCCCCCCCCCCCC [ceramide 3, reference compound]	63	27	–	–
CCCCCCCC/C=C/CCCCCCCCNC(=O)CC(/C=C/CCCCCCCCCC)C(=O)O (stereo not drawn) [Formula 3]	31	64	no strain was expressed	516.83
